# In patent US8765773B2, “Substituted hydroxamic acids and uses thereof” (Millennium Pharmaceuticals, Inc., priority 2010, dated 2014):
# Target: T1, purified human HDAC6 (Homo sapiens, UniProt Q9UBN7)
# T1 construct: purchased BPS Bioscience 5006
# T1 sequence (Q9UBN7 1-1215): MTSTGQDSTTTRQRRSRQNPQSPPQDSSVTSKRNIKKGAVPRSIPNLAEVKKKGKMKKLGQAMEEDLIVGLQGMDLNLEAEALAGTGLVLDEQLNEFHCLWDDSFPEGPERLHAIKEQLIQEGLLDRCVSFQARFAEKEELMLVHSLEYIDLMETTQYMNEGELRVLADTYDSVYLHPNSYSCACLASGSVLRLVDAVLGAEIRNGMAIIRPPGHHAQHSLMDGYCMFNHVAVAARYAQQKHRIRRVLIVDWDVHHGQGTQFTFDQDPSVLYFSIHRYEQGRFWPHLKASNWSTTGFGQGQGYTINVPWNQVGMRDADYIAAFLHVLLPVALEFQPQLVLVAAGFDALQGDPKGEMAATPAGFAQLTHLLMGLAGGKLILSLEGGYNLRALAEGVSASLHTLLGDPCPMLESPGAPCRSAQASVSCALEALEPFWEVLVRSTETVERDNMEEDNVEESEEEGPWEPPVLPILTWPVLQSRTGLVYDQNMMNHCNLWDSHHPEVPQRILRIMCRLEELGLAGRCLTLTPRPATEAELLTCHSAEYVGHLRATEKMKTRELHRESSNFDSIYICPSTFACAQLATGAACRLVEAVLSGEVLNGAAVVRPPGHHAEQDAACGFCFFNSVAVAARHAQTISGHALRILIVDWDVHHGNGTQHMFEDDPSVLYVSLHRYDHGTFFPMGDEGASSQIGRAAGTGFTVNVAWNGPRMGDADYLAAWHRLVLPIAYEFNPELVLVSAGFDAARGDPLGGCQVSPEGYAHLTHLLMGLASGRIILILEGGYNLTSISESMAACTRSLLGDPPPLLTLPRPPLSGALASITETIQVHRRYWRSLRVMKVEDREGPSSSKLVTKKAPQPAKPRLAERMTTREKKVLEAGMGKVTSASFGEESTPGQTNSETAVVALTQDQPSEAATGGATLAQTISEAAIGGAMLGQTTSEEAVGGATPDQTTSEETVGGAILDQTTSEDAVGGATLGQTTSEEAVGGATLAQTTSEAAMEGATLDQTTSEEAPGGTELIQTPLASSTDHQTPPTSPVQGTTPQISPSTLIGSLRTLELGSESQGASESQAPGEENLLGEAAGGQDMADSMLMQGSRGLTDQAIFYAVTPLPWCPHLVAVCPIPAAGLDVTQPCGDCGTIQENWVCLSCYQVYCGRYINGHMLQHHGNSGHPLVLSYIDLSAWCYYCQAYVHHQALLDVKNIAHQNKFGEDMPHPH
# Assay: HDAC6 Enzyme Assay
# Type: biochemical
# Settings: compound concentration 0.37 μM, read-out: Percent Inhibition
# How it was run: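 Purified human HDAC6 incubated 1 h at 30° C with Ac-Arg-Gly-Lys(Ac)-AMC peptide plus compound or DMSO; stopped with trichostatin A. Deacetylated product trypsin-digested, released AMC read by fluorescence (Ex 340/Em 460 nm). Percent inhibition at one concentration or IC50 from curves relative to DMSO controls.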
row,Structure (SMILES),inhibition at 0.37 µM
1,"O=C(NO)c1ccc2c(=O)n(Cc3ccc(C(F)(F)F)cc3)c(-c3ccc4ccccc4c3)nc2c1 [Compound I-85, N-hydroxy-2-(2-naphthyl)-4-oxo-3-[4-(trifluoromethyl)benzyl]-3,4-dihydroquinazoline-7-carboxamide]",72.6%
2,"O=C(NO)c1ccc2ccn(CCc3ccccn3)c(=O)c2c1 [Compound I-344, N-hydroxy-1-oxo-2-(2-pyridin-2-ylethyl)-1,2-dihydroisoquinoline-7-carboxamide]",93.1%
3,"O=C(NO)c1ccc2ncn(CCc3cccc(-c4ccccc4Cl)c3)c(=O)c2c1 [Compound I-314, 3-[2-(2′-chlorobiphenyl-3-yl)ethyl]-N-hydroxy-4-oxo-3,4-dihydroquinazoline-6-carboxamide]",93.5%
4,"CC(C)(c1ccccc1)n1cnc2ccc(C(=O)NO)cc2c1=O [Compound I-413, N-hydroxy-3-(1-methyl-1-phenylethyl)-4-oxo-3,4-dihydroquinazoline-6-carboxamide]",94.1%
5,"O=C(NO)c1ccc2ncn(Cc3cccc(-c4ccc(F)cc4)c3)c(=O)c2c1 [Compound I-181, 3-[(4′-fluorobiphenyl-3-yl)methyl]-N-hydroxy-4-oxo-3,4-dihydroquinazoline-6-carboxamide]",92.7%
6,"O=C(NO)c1ccc2ccn(CCC(c3ccc(Cl)cc3)C3CCNCC3)c(=O)c2c1 (stereo not shown) [Compound I-103, 2-[3-(4-chlorophenyl)-3-piperidin-4-ylpropyl]-N-hydroxy-1-oxo-1,2-dihydroisoquinoline-7-carboxamide]",100%
7,"CC(C)c1cccc(-c2cccc(Cn3cnc4ccc(C(=O)NO)cc4c3=O)c2)c1 [Compound I-182, N-hydroxy-3-[(3′-isopropylbiphenyl-3-yl)methyl]-4-oxo-3,4-dihydroquinazoline-6-carboxamide]",78.9%
8,"CN(C)c1ccc(-c2nc3cc(C(=O)NO)ccc3c(=O)n2Cc2ccc(C(F)(F)F)cc2)cc1 [Compound I-274, 2-[4-(dimethylamino)phenyl]-N-hydroxy-4-oxo-3-[4-(trifluoromethyl)benzyl]-3,4-dihydroquinazoline-7-carboxamide]",78.8%
9,"Cc1ccc(Cc2nc3cc(C(=O)NO)ccc3c(=O)[nH]2)c(C)c1 [Compound I-417, 2-(2,4-dimethylbenzyl)-N-hydroxy-4-oxo-3,4-dihydroquinazoline-7-carboxamide]",56.7%

# Same assay, conditions: compound concentration 0.412 μM, read-out: Percent Inhibition
row,Structure (SMILES),inhibition at 0.412 µM
1,"CC(C)(C)OC(=O)N1CCC(C)(C(=O)Nc2cccc(Cn3ccc4ccc(C(=O)NO)cc4c3=O)c2)CC1 [Compound I-93, tert-butyl 4-{[(3-{[7-[(hydroxyamino)carbonyl]-1-oxoisoquinolin-2(1H)-yl]methyl}phenyl)amino]carbonyl}-4-methylpiperidine-1-carboxylate]",90.1%
2,"O=C(NO)c1ccc2ccn(CCNc3cccc(-n4cccn4)c3)c(=O)c2c1 [Compound I-108, N-hydroxy-1-oxo-2-(2-{[3-(1H-pyrazol-1-yl)phenyl]amino}ethyl)-1,2-dihydroisoquinoline-7-carboxamide]",91.4%
3,"Cn1c(NCc2ccc(Cl)cc2)nc2ccc(C(=O)NO)cc2c1=O [Compound I-165, 2-[(4-chlorobenzyl)amino]-N-hydroxy-3-methyl-4-oxo-3,4-dihydroquinazoline-6-carboxamide]",59.5%
4,"O=C(NO)c1ccc2ccn(CC3CC3)c(=O)c2c1 [Compound I-261, 2-(cyclopropylmethyl)-N-hydroxy-1-oxo-1,2-dihydroisoquinoline-7-carboxamide]",87.5%
5,"Cn1cnc2cc(C(=O)NO)ccc2c1=O [Compound I-242, N-hydroxy-3-methyl-4-oxo-3,4-dihydroquinazoline-7-carboxamide]",68.8%
6,"Cn1c(=O)[nH]c2ccc(C(=O)NO)cc2c1=O [Compound I-169, N-hydroxy-3-methyl-2,4-dioxo-1,2,3,4-tetrahydroquinazoline-6-carboxamide]",62.8%
7,"O=C(NO)c1ccc2ccn(CCCn3cccc3)c(=O)c2c1 [Compound I-269, N-hydroxy-1-oxo-2-[3-(1H-pyrrol-1-yl)propyl]-1,2-dihydroisoquinoline-7-carboxamide]",94.5%
8,"COc1cc(Cn2ccc3ccc(C(=O)NO)cc3c2=O)cc(OC)c1 [Compound I-202, 2-(3,5-dimethoxybenzyl)-N-hydroxy-1-oxo-1,2-dihydroisoquinoline-7-carboxamide]",96.1%
9,"O=C(NO)c1ccc2ncn(Cc3csc4ccc(Cl)cc34)c(=O)c2c1 [Compound I-164, 3-[(5-chloro-1-benzothien-3-yl)methyl]-N-hydroxy-4-oxo-3,4-dihydroquinazoline-6-carboxamide]",94.1%
10,"O=C(NO)c1ccc2ccn(CCCOc3ccc(OCc4ccccc4)cc3)c(=O)c2c1 [Compound I-116, 2-{3-[4-(benzyloxy)phenoxy]propyl}-N-hydroxy-1-oxo-1,2-dihydroisoquinoline-7-carboxamide]",80.2%
11,"Cn1c(NCc2ccncc2)nc2cc(C(=O)NO)ccc2c1=O [Compound I-47, N-hydroxy-3-methyl-4-oxo-2-[(pyridin-4-ylmethyl)amino]-3,4-dihydroquinazoline-7-carboxamide]",44.2%
12,"Cn1cnc2ccc(C(=O)NO)cc2c1=O [Compound I-156, N-hydroxy-3-methyl-4-oxo-3,4-dihydroquinazoline-6-carboxamide]",55.7%
13,"CC(C)n1c(-c2ccccc2)nc2cc(C(=O)NO)ccc2c1=O [Compound I-9, N-hydroxy-3-isopropyl-4-oxo-2-phenyl-3,4-dihydroquinazoline-7-carboxamide]",85%
14,"CC(C)CCCn1cnc2cc(C(=O)NO)ccc2c1=O [Compound I-275, N-hydroxy-3-(4-methylpentyl)-4-oxo-3,4-dihydroquinazoline-7-carboxamide]",94.9%
15,"O=C(NO)c1ccc2ccn(Cc3nc4ccccc4s3)c(=O)c2c1 [Compound I-272, 2-(1,3-benzothiazol-2-ylmethyl)-N-hydroxy-1-oxo-1,2-dihydroisoquinoline-7-carboxamide]",97.5%
16,"CC(C)(C)c1ccc(Cn2cnc3cc(C(=O)NO)ccc3c2=O)cc1 [Compound I-87, 3-(4-tert-butylbenzyl)-N-hydroxy-4-oxo-3,4-dihydroquinazoline-7-carboxamide]",91%
17,"O=C(NO)c1ccc2c(=O)[nH]c(COc3ccccc3-n3cccc3)nc2c1 [Compound I-233, N-hydroxy-4-oxo-2-{[2-(1H-pyrrol-1-yl)phenoxy]methyl}-3,4-dihydroquinazoline-7-carboxamide]",91.1%
18,"CCN(CC)Cc1nc2cc(C(=O)NO)ccc2c(=O)[nH]1 [Compound I-84, 2-[(diethylamino)methyl]-N-hydroxy-4-oxo-3,4-dihydroquinazoline-7-carboxamide]",60.5%
19,"O=C(NO)c1ccc2ccn(CCCOc3ccc(-n4ccnc4)cc3)c(=O)c2c1 [Compound I-129, N-hydroxy-2-{3-[4-(1H-imidazol-1-yl)phenoxy]propyl}-1-oxo-1,2-dihydroisoquinoline-7-carboxamide]",96.3%
20,"Cc1nn(-c2ccccc2)nc1Cn1ccc2ccc(C(=O)NO)cc2c1=O [Compound I-234, N-hydroxy-2-[(5-methyl-2-phenyl-2H-1,2,3-triazol-4-yl)methyl]-1-oxo-1,2-dihydroisoquinoline-7-carboxamide]",98.6%
21,"O=C(NO)c1ccc2c(=O)n(-c3ccc(Cl)cc3)c(NCc3ccc(Cl)cc3)nc2c1 [Compound I-262, 2-[(4-chlorobenzyl)amino]-3-(4-chlorophenyl)-N-hydroxy-4-oxo-3,4-dihydroquinazoline-7-carboxamide]",68.2%
22,"O=C(NO)c1ccc2c(=O)[nH]c(COc3cccc(C(F)(F)F)c3)nc2c1 [Compound I-110, N-hydroxy-4-oxo-2-{[3-(trifluoromethyl)phenoxy]methyl}-3,4-dihydroquinazoline-7-carboxamide]",76%
